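The concentration for 50% growth inhibition is given as GI50. At the TGI there is no net growth.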
Assays:
Test in all cases: growth of human tumour cells (NCI), 384-well format
OVCAR-3 ovarian = tested on: OVCAR-3 ovarian
NCI-H23 lung = tested on: NCI-H23 lung
BT-549 breast = tested on: BT-549 breast
K-562 leukemia = tested on: K-562 leukemia
RPMI-8226 leukemia = tested on: RPMI-8226 leukemia
SF-539 CNS = tested on: SF-539 CNS
786-0 renal = tested on: 786-0 renal
CCRF-CEM leukemia = tested on: CCRF-CEM leukemia
HOP-62 NSCLC = tested on: HOP-62 NSCLC
ACHN renal = tested on: ACHN renal
HCT-15 colon = tested on: HCT-15 colon
PC-3 prostate = tested on: PC-3 prostate
NCI-H226 lung = tested on: NCI-H226 lung
IGROV1 ovarian = tested on: IGROV1 ovarian
SNB-75 CNS = tested on: SNB-75 CNS
NCI/ADR-RES ovarian = tested on: NCI/ADR-RES ovarian
SF-295 CNS = tested on: SF-295 CNS
SR leukemia = tested on: SR leukemia
LOX IMVI melanoma = tested on: LOX IMVI melanoma
SW-620 colon = tested on: SW-620 colon
SK-MEL-5 melanoma = tested on: SK-MEL-5 melanoma
HCT-116 colon = tested on: HCT-116 colon
MDA-MB-231 breast = tested on: MDA-MB-231 breast
A549 NSCLC = tested on: A549 NSCLC
HS 578T breast = tested on: HS 578T breast
NCI-H322M lung = tested on: NCI-H322M lung
M14 melanoma = tested on: M14 melanoma
SF-268 CNS = tested on: SF-268 CNS
HL-60(TB) leukemia = tested on: HL-60(TB) leukemia
RXF 393 renal = tested on: RXF 393 renal
UO-31 renal = tested on: UO-31 renal
COLO 205 colon = tested on: COLO 205 colon
HOP-92 NSCLC = tested on: HOP-92 NSCLC
MCF7 breast = tested on: MCF7 breast
NCI-H460 NSCLC = tested on: NCI-H460 NSCLC
TK-10 renal = tested on: TK-10 renal
HT29 colon = tested on: HT29 colon
DU-145 prostate = tested on: DU-145 prostate
NCI-H522 lung = tested on: NCI-H522 lung
EKVX NSCLC = tested on: EKVX NSCLC
SK-MEL-28 melanoma = tested on: SK-MEL-28 melanoma
SK-OV-3 ovarian = tested on: SK-OV-3 ovarian
A498 renal = tested on: A498 renal
T-47D breast = tested on: T-47D breast
MDA-MB-435 melanoma = tested on: MDA-MB-435 melanoma
UACC-257 melanoma = tested on: UACC-257 melanoma
OVCAR-4 ovarian = tested on: OVCAR-4 ovarian
HCC-2998 colon = tested on: HCC-2998 colon
OVCAR-8 ovarian = tested on: OVCAR-8 ovarian
KM12 colon = tested on: KM12 colon
U251 glioblastoma = tested on: U251 glioblastoma
MALME-3M melanoma = tested on: MALME-3M melanoma
CAKI-1 renal = tested on: CAKI-1 renal
UACC-62 melanoma = tested on: UACC-62 melanoma

Q: What does the source list for `CCCCCCCCCCCCCCCC(=O)Nc1ccn([C@@H]2O[C@H](CO)[C@@H](O)[C@@H]2C#N)c(=O)n1`?
A: GI50 (OVCAR-3 ovarian): 10.3 µM; TGI (OVCAR-3 ovarian): 37.9 µM; GI50 (NCI-H23 lung): 0.244 µM; TGI (NCI-H23 lung): 15.5 µM; GI50 (BT-549 breast): 5.56 µM; TGI (BT-549 breast): 24.2 µM; GI50 (K-562 leukemia): 2.52 µM; TGI (K-562 leukemia): 17.7 µM; GI50 (RPMI-8226 leukemia): 4.4 µM; TGI (RPMI-8226 leukemia): 20.6 µM; GI50 (SF-539 CNS): 4.82 µM; TGI (SF-539 CNS): 38.3 µM; GI50 ([…]-0 renal): 0.0598 µM; TGI (786-0 renal): 29.8 µM; TGI (CCRF-CEM leukemia): 0.12 µM; GI50 (HOP-62 NSCLC): 0.0542 µM; TGI (HOP-62 NSCLC): 18.5 µM; GI50 (ACHN renal): 0.988 µM; TGI (ACHN renal): 39.1 µM; GI50 (HCT-15 colon): 0.946 µM; TGI (HCT-15 colon): 66.9 µM; GI50 (PC-3 prostate): 13.3 µM; TGI (PC-3 prostate): 92.5 µM; GI50 (NCI-H226 lung): 13.3 µM; TGI (NCI-H226 lung): 54.9 µM; GI50 (IGROV1 ovarian): 12.7 µM; TGI (IGROV1 ovarian): 86 µM; GI50 (SNB-75 CNS): 4.66 µM; TGI (SNB-75 CNS): 52.5 µM; GI50 (NCI/ADR-RES ovarian): 11.1 µM; TGI (NCI/ADR-RES ovarian): > 100 µM; GI50 (SF-295 CNS): 0.716 µM; TGI (SF-295 CNS): > 100 µM; GI50 (SR leukemia): 0.139 µM; TGI (SR leukemia): 0.339 µM; GI50 (LOX IMVI melanoma): 3.42 µM; TGI (LOX IMVI melanoma): 17.7 µM; GI50 (SW-620 colon): 4.81 µM; TGI (SW-620 colon): > 100 µM; GI50 (SK-MEL-5 melanoma): 7.71 µM; TGI (SK-MEL-5 melanoma): 21 µM; GI50 (HCT-116 colon): 0.454 µM; TGI (HCT-116 colon): 18.8 µM; GI50 (MDA-MB-231 breast): 11.1 µM; TGI (MDA-MB-231 breast): > 100 µM; GI50 (A549 NSCLC): 1.32 µM; TGI (A549 NSCLC): 20 µM; GI50 (HS 578T breast): 1.58 µM; TGI (HS 578T breast): 20.4 µM; GI50 (NCI-H322M lung): 14.6 µM; TGI (NCI-H322M lung): 31 µM; GI50 (M14 melanoma): 3 µM; TGI (M14 melanoma): 22.4 µM; GI50 (SF-268 CNS): 0.43 µM; TGI (SF-268 CNS): 19.9 µM; GI50 (HL-60(TB) leukemia): 0.368 µM; TGI (HL-60(TB) leukemia): 1.4 µM; GI50 (RXF 393 renal): 16.6 µM; TGI (RXF 393 renal): > 100 µM; GI50 (UO-31 renal): 11.7 µM; TGI (UO-31 renal): 45.7 µM; GI50 (COLO 205 colon): 0.325 µM; TGI (COLO 205 colon): > 100 µM; GI50 (HOP-92 NSCLC): 4.71 µM; TGI (HOP-92 NSCLC): 35.3 µM; GI50 (MCF7 breast): 1.33 µM; TGI (MCF7 breast): 24.3 µM; GI50 (NCI-H460 NSCLC): 0.143 µM; TGI (NCI-H460 NSCLC): 10.1 µM; GI50 (TK-10 renal): 34.8 µM; TGI (TK-10 renal): > 100 µM; GI50 (HT29 colon): 12.5 µM; TGI (HT29 colon): > 100 µM; GI50 (DU-145 prostate): 0.751 µM; TGI (DU-145 prostate): 21.7 µM; GI50 (NCI-H522 lung): 6.11 µM; TGI (NCI-H522 lung): 23.4 µM; GI50 (EKVX NSCLC): 28.4 µM; TGI (EKVX NSCLC): > 100 µM; GI50 (SK-MEL-28 melanoma): 6.96 µM; TGI (SK-MEL-28 melanoma): 30.1 µM; GI50 (SK-OV-3 ovarian): 1.15 µM; TGI (SK-OV-3 ovarian): 39.1 µM; GI50 (A498 renal): 0.74 µM; TGI (A498 renal): 15.8 µM; GI50 (T-47D breast): 35.1 µM; TGI (T-47D breast): > 100 µM; GI50 (MDA-MB-435 melanoma): 28.1 µM; TGI (MDA-MB-435 melanoma): > 100 µM; GI50 (UACC-257 melanoma): 20.1 µM; TGI (UACC-257 melanoma): 74.6 µM; GI50 (OVCAR-4 ovarian): 28.1 µM; TGI (OVCAR-4 ovarian): > 100 µM; GI50 (HCC-2998 colon): 0.464 µM; TGI (HCC-2998 colon): 10.6 µM; GI50 (OVCAR-8 ovarian): 0.292 µM; TGI (OVCAR-8 ovarian): 18.4 µM; GI50 (KM12 colon): 6.5 µM; TGI (KM12 colon): 35.2 µM; GI50 (U251 glioblastoma): 0.314 µM; TGI (U251 glioblastoma): 23.5 µM; GI50 (MALME-3M melanoma): 10.5 µM; TGI (MALME-3M melanoma): 28 µM; GI50 (CAKI-1 renal): 2.44 µM; TGI (CAKI-1 renal): 43.6 µM; GI50 (UACC-62 melanoma): 0.655 µM; TGI (UACC-62 melanoma): 23.5 µM

— PubChem BioAssay (NCI)
